Test results taken from patent US11253524B2 (Gilead Sciences, Inc., priority 2018, dated 2022).
Marks after values point to notes of the source that are not given here.

Legend:
[1] = Phase 1 mass-balance study, [14C]bictegravir metabolite profiling in plasma, urine and feces; settings: for % of administered dose in feces: feces pooled per individual subject, 0 to 144 hours postdose, average of 8 subjects; for % of plasma AUC0-72 h of total radioactivity: human plasma, AUC pool 0-72 h, single oral 100 mg [14C]bictegravir; for % of administered dose in urine: human urine pooled 0 to 96 hours postdose
Text: A total of eight patents were enrolled. Subjects were healthy male nonsmokers, 18 to 45 years of age, inclusive, with a body mass index (BMI) from 19 to 30 kg/m2, inclusive, normal 12-lead electrocardiogram (ECG), normal renal function, no significant medical history, and in good general health, as determined by the investigator at the screening evaluation performed no more than 28 days prior to the scheduled first dose.
Treatment involved a single, oral dose followed by a 6- to 21-day sample collection period, the exact duration of which was based on recovery of radiolabeled drug. […] Following administration, the dosing container was rinsed twice, each rinse with approximately 50 mL of cranberry juice, and administered to the subject. The entire study drug solution and cranberry juice rinse (total of approximately 140 mL) was taken within a 10 minute window. […]
Urine: Metabolite profiling and quantitation in urine was performed with samples pooled for individual subjects within the period of 0 to 96 hours postdose.
Feces: Metabolite profiling and quantitation in feces was performed with the feces samples pooled for individual subjects.
Metabolite Quantitation: LC-Radio-chromatograms of the pooled plasma, urine, and feces samples were obtained.

[2] = biological target: T1, human hepatic microsomal UGT1A1 (Homo sapiens, UniProt P22309); assay: biochemical; settings: for Stimulation of enzyme activity, peak increase: at 200 μM
T1 sequence (P22309 26-533): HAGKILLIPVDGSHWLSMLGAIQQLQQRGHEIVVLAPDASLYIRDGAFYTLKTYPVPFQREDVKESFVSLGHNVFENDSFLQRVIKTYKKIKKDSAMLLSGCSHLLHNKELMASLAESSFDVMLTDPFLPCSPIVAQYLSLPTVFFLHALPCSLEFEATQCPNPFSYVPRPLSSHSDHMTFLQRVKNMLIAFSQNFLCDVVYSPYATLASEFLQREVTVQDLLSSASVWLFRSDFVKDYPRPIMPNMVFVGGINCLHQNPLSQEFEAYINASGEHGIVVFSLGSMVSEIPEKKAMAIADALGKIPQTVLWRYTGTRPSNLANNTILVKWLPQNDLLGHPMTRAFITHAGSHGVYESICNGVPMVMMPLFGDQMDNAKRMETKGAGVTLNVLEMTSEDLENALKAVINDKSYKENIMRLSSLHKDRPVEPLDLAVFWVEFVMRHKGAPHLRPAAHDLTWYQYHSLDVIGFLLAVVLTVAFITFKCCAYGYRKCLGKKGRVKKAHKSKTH
Experimental: The conditions for the assay were determined to be linear with respect to microsomal protein concentration and incubation time. […] Microsomal UGT1A1 activity was determined in duplicate. […] Diluted microsomal fraction was incubated on ice for 15 minutes with alamethicin, magnesium chloride and SACLAC. Substrate and inhibitor were then added and the mixture warmed to 37° C. for 0.5 minute. The reaction was initiated by the addition of UDP glucuronic acid in potassium phosphate buffer. The incubation continued at 37° C. with shaking and no light exposure for 2 minutes. Reactions were terminated by addition of one volume of 200 mM ascorbic acid in methanol, containing 200 nM 2-(N-(2-ethylphenyl)methylsulfonamido)-N-(2-(pyridin-2-ylthio)ethyl)acetamide as the internal standard.
A Shimadzu UFLC XR UPLC system was used for analysis. The column used was a Thermo-Hypersil Gold 1.9 μm C18 column (30×2.1 mm) held at 60° C. Mobile phases were; A: water containing 0.1% (v/v) formic acid, and B: acetonitrile containing 0.1% (v/v) formic acid, pumped at 0.7 mL/minute. Elution was achieved by a series of linear gradients over 2 minutes. The mass spectrometer was an Applied Biosciences SCIEX QTRAP 5500 triple quadrupole mass spectrometer with an electrospray interface operating in positive ion mode. Quantification was by metabolite/internal standard peak area ratio (PAR).
MS/MS transitions ([M+H]+) of m/z 761.2/475.1 and 937.2/475.1 for the monoglucuronide and diglucuronide, respectively. The PAR values for the two monoglucuronides were combined for quantification.
Reaction velocities were calculated from the rates of formation of the metabolites and were compared to those seen with the vehicle control (100% activity). IC50 values were calculated by non-linear regression using GraphPad Prism 7.03 and a sigmoidal three parameter inhibition model. […] During the testing period the inhibitory potency of atazanavir was determined four times, with each concentration tested in duplicate in each determination. The data from all runs were pooled and a global fit performed to determine the lower plateau value. […] For atazanavir, the IC50 values from the four duplicate runs were combined to generate a summary geometric mean and multiplicative standard deviation for this positive control inhibitor.

[3] = biological target: T2, MRP2 (ABCC2) (Homo sapiens, UniProt Q92887); assay: in vitro; assay type: biochemical; settings: human
T2 construct: host or cells: membrane vesicle preparations
Experimental: (§1) Cells and experimental conditions for the transporter inhibition assays are summarized below in Table 7. […] M15, M20, and M23 were prepared according to the procedures described herein. All other materials were purchased by SOLVO Biotechnology and experiments were conducted according to SOLVO Standard Operating Procedures (SOPs) of its certified ISO 9001:2008 system. Lot and product information was recorded by SOLVO Biotechnology.
(§2) Test compounds and positive control was incubated with membrane vesicle preparations (total protein: 50 μg/well) and the model substrate in the absence or presence of ATP. Reaction mixtures were preincubated for 15 minutes at 37° C. Reactions were started by the addition of 25 μL of 12 mM MgATP or AMP assay buffer (for background controls) preincubated separately. Reactions were stopped after 5 min by the addition of 200 μL of ice-cold washing buffer and immediate filtration via glass fiber filters mounted to a 96-well plate (filter plate). The filters were washed, dried and the amount of substrate inside the filtered vesicles determined by liquid scintillation. A positive control inhibitor was tested in parallel. Control membranes lacking transporter expression were used as negative control. All assays were performed in duplicate.
(§3) Fractional transport activities were calculated from the following equation: Activity %=(A−B)/(C−D)×100 where A is translocated amount of substrate in the presence of TA and ATP, B is translocated amount of substrate in the presence of TA, C is translocated amount of substrate in the presence of solvent and ATP, and D is translocated amount of substrate in the presence of solvent. IC50 Determination in Transporter Assays
(§4) IC50 is defined as the test article concentration needed to inhibit the maximal transporter specific transport by 50%. IC50 values were calculated using non-linear fitting of % inhibition versus concentration to a sigmoidal curve with a variable Hill Coefficient using GraphPad Prism 5 (GraphPad Software Inc., San Diego, Calif.). If the % inhibition was less than 50% at the highest concentration tested, the IC50 was not determined. No inhibition observed (NIO) is reported for relative inhibition results <20% and no concentration dependent transport observed up to the highest concentration tested.

[4] = biological target: T3, multidrug-resistance protein 2 (MRP2; ABCC2) (Homo sapiens, UniProt Q92887); assay: biochemical; assay type: biochemical
T3 construct: host or cells: membrane vesicle preparations
Experimental: as §1, §2, §3, §4

T2 sequence (Q92887 whole entry): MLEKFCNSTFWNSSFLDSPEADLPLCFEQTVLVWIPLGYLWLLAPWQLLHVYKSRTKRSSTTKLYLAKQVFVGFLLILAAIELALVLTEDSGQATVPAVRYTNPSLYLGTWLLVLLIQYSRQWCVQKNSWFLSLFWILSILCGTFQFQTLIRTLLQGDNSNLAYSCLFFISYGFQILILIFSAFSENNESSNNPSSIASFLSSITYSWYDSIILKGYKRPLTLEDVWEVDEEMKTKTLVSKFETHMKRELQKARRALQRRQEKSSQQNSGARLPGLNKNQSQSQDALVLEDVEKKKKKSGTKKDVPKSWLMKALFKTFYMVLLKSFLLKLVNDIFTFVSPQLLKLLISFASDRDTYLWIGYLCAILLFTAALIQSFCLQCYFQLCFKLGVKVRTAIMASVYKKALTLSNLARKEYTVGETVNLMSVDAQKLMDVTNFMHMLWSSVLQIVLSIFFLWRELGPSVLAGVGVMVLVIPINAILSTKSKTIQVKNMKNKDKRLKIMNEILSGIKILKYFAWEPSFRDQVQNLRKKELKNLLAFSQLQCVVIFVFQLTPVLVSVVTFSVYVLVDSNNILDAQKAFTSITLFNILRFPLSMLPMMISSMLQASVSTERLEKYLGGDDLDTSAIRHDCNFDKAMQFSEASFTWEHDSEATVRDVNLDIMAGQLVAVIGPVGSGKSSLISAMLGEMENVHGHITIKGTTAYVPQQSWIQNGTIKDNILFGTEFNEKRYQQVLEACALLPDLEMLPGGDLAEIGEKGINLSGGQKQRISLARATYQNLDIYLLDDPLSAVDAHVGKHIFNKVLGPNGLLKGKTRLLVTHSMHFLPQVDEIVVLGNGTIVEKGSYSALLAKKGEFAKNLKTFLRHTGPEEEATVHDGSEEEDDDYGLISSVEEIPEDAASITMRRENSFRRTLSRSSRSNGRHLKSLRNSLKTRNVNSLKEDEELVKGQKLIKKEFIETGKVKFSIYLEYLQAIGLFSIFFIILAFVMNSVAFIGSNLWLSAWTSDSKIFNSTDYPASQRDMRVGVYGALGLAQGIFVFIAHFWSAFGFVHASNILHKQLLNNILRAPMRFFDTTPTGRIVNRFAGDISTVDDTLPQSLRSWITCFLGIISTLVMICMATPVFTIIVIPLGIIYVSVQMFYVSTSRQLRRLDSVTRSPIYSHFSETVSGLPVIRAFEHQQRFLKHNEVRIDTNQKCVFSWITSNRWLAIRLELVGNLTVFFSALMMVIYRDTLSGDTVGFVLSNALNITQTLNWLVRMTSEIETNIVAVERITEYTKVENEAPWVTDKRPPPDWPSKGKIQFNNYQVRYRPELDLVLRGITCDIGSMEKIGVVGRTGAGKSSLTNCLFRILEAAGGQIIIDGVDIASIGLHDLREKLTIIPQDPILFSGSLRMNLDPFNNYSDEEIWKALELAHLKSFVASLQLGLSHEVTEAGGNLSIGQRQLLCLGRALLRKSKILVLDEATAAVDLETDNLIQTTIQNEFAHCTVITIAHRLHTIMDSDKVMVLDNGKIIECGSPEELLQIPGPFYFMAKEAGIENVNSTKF
T3 sequence (Q92887 whole entry): as above

## O=C(NCc1c(F)cc(F)c(O)c1F)c1cn2c(c(O)c1=O)C(=O)N1[C@H]3CC[C@H](C3)O[C@@H]1C2 [Metabolite M23]
[1]
  % of administered dose in feces: 3.6%
  % of plasma AUC0-72 h of total radioactivity: 0.2^c %
[2]
  IC50: 256 µM
[3]
  inhibition at 5 min, 100 µM: 43%
[4]
  IC50: > 100 µM

## O=C(NCc1c(F)cc(F)c(OS(=O)(=O)O)c1F)c1cn2c(c(O)c1=O)C(=O)N1C(C2)O[C@@H]2CC[C@H]1C2 (some centres unmarked) [Metabolite M20]
[1]
  % of plasma AUC0-72 h of total radioactivity: 20.1%
[2]
  IC50: 153 µM
[3]
  inhibition at 5 min, 300 µM: 98%
[4]
  IC50: 45 µM

## O=C(NCc1c(F)cc(F)cc1F)c1cn2c(c(O)c1=O)C(=O)N1[C@H]3CC[C@H](C3)O[C@@H]1C2 [BIC, bictegravir, reference compound]
[1]
  % of administered dose in feces: 30.6%
  % of plasma AUC0-72 h of total radioactivity: 67.9%
  % of administered dose in urine: 3.6%
[1]; listed as [^14C]Bictegravir
  % of plasma AUC0-72 h of total radioactivity: 67.9%
[1]; listed as [^14C]bictegravir
  % of plasma AUC0-72 h of total radioactivity: approximately 67.9%
[2]
  IC50: > 300 µM
  Stimulation of enzyme activity, peak increase: 76%
[4]
  IC50 (μM): NIO

## O=C(NCc1c(F)cc(F)cc1F)c1cn2c(c(O[C@@H]3O[C@H](C(=O)O)[C@@H](O)[C@H](O)[C@H]3O)c1=O)C(=O)N1[C@H]3CC[C@H](C3)O[C@@H]1C2 [Metabolite M15]
[1]
  % of plasma AUC0-72 h of total radioactivity: 8.6%
  % of administered dose in urine: 21.4%
[2]
  IC50: > 300 µM
  Stimulation of enzyme activity, peak increase: 21%
[3]
  inhibition at 5 min, 300 µM: 53%
[4]
  IC50: 256 µM
